From US8067611B2, “Substituted 1-(thiazolyl)-and 1-(isothiazolyl)pyrazol-4-ylacetic acids, processes for their preparation and their use as herbicides and plant growth regulators” (Bayer CropScience AG, priority 2008, dated 2011) come the findings set out here.

Holding throughout (assay type): in vivo
One assay concerns harmful plants. The assay can be described thus: Pre-emergence herbicidal effect, greenhouse pot test. To be noted: application rate of 1 kg or less of active substance per hectare, scored after about 3 weeks. From the text:
(§1) Seeds of monocotyledonous or dicotyledonous weed plants or crop plants are planted in wood-fiber pots in sandy loam and covered with soil. The compounds (I) according to the invention, formulated in the form of wettable powders (WP), are then applied as aqueous suspension or emulsion at a water application rate of 600 I/ha (converted) with the addition of 0.2% of wetting agent to the surface of the covering soil.
(§2) Following the treatment, the pots are placed in a greenhouse and kept under good growth conditions for the test plants. After about 3 weeks, the effect of the preparations is scored visually in comparison with untreated controls (herbicidal effect in percent (%): 100% effect=plants have died, 0% effect=as control plants).

Another assay deals with Alopecurus myosuroides. The description is as above. The note with it: 1.0 kg or 0.32 kg of active substance per hectare, 100% = plants have died.
Text: as §1, §2

A further assay has as its system Setaria viridis. Described as above. The note with it: 1.0 kg or 0.32 kg of active substance per hectare, 100% = plants have died.
Text: as §1, §2

A further assay concerns Echinochloa crus galli. Described as above. To be noted: 1.0 kg or 0.32 kg of active substance per hectare, 100% = plants have died.
Text: as §1, §2

The subject of another assay is Avena fatua. Described as above. The note with it: 1.0 kg or 0.32 kg of active substance per hectare, 100% = plants have died.
Text: as §1, §2

Assay [1] deals with weed-grasses and broad-leaved weeds. Nature of the assay: Post-emergence herbicidal effect, greenhouse pot test. To be noted: application rate of 1 kg and less of active substance per hectare, scored after 3 weeks. As to the method:
Seeds of monocotyledonous or dicotyledonous weed plants or crop plants are planted in wood-fiber pots in sandy loam, covered with soil and grown in a greenhouse under good growth conditions. 2 to 3 weeks after sowing, the test plants are treated in the one-leaf stage. The compounds according to the invention, formulated in the form of wettable powders (WP), are then sprayed onto the green plant parts as aqueous suspension or emulsion at a water application rate of 600 I/ha (converted) with the addition of 0.2% of wetting agent. After 3 weeks' standing time of the test plants in the greenhouse under optimum growth conditions, the effect of the preparations is scored visually in comparison with untreated controls (herbicidal effect in percent (%): 100% effect=plants have died, 0% effect=as control plants).

Turning to `COC(=O)Cc1c(C)nn(-c2cncs2)c1-c1cnc(C)cn1` [Compound 8-217], in the assay with harmful plants, the “herbicidal pre-emergence activity against a number of harmful plants” value (“herbicidal pre-emergence activity” for short) is reported as “good herbicidal pre-emergence activity”. Further, the herbicidal activity in the assay with Alopecurus myosuroides, with Setaria viridis, in the assay with Echinochloa crus galli and in the assay on Avena fatua was no less than 80% each time. In addition, the “post-emergence activity against a broad spectrum of weed-grasses and broad-leaved weeds” value (“post-emergence activity” below) in assay [1] is “good post-emergence activity”.
With `COC(=O)Cc1c(C)nn(-c2cncs2)c1-c1ncc(Br)cn1` [Compound 8-230], the “herbicidal pre-emergence activity” value with harmful plants is “good herbicidal pre-emergence activity”. In assay [1], the “post-emergence activity” value is recorded as “good post-emergence activity”.
In the case of `COC(=O)Cc1c(C)nn(-c2cncs2)c1-c1ccc2ccccc2n1` [Compound 8-239], the “herbicidal pre-emergence activity” value in the assay on harmful plants is listed as “good herbicidal pre-emergence activity”. Also, the “post-emergence activity” value in assay [1] was “good post-emergence activity”.
As to `COC(=O)Cc1c(C)nn(-c2cncs2)c1-c1cc2ccccc2cn1` [Compound 8-240], the “herbicidal pre-emergence activity” value in the assay with harmful plants was “good herbicidal pre-emergence activity”. In addition, the “post-emergence activity” value in assay [1] is reported as “good post-emergence activity”.
On to `CCOC(=O)c1ncsc1-n1nc(C)c(CC(=O)OC)c1-c1ccccn1` [Compound 8-241, Ethyl 5-[4-(2-methoxy-2-oxoethyl)-3-methyl-5-(pyridin-2-yl)-1H-pyrazol-1-yl]-1,3-thiazole-4-carboxylate], for which the “herbicidal pre-emergence activity” value in the assay on harmful plants is “good herbicidal pre-emergence activity”. Also, the “post-emergence activity” value in assay [1] is “good post-emergence activity”.
For the compound `COC(=O)Cc1c(C)nn(-c2cncs2)c1-c1ccc(-c2ccccc2)cc1` [Compound 8-276], in the assay on harmful plants, the “herbicidal pre-emergence activity” value is given as “good herbicidal pre-emergence activity”. In addition, the “post-emergence activity” value in assay [1] was “good post-emergence activity”.
In the case of `COC(=O)Cc1c(C)nn(-c2cncs2)c1-c1cc(C)c(Cl)cn1` [Compound 8-294], the “herbicidal pre-emergence activity” value in the assay with harmful plants is on record as “good herbicidal pre-emergence activity”. In addition, the “post-emergence activity” value in assay [1] is “good post-emergence activity”.
On to `CCOC(=O)Cc1c(C)nn(-c2cncs2)c1-c1ccc(Cl)cc1` [Compound 9-4], for which the “herbicidal pre-emergence activity” value with harmful plants is “good herbicidal pre-emergence activity”. Besides, the “post-emergence activity” value in assay [1] is on record as “good post-emergence activity”.
On to `Cc1nn(-c2cncs2)c(-c2ccc(Cl)cc2)c1CC(=O)OCC1CC1` [Compound 9-122], for which the “herbicidal pre-emergence activity” value with harmful plants is “good herbicidal pre-emergence activity”. The “post-emergence activity” value in assay [1] is reported as “good post-emergence activity”.
